Measured values: patent publication US20230226092A1, “CANCER […] ON G[…]” (NuCana plc, priority 2015, published 2023)

System: advance progressive cancers that are refractory to, or have relapsed on, all conventional therapies
Test: ProGem1 dose escalation clinical study: clinical response (RECIST 1.1, tumour markers)
Assay type: in vivo, human
Parameters: CA125 level / CA19.9 / CEA / CA125 / Tumour volume / CA 15.3 tumour marker / inhibin B: unit not given here
From the text: The following data were generated in clinical studies of NUC-1031 in human patients with advance progressive cancers that are refractory to, or have relapsed on, all conventional therapies that have been used to date. The results clearly illustrate the ability of NUC-1031 to successfully treat refractory cancers.
Although the primary objectives of the dose escalation part of the study were to determine the Recommended Phase II Dose (RP2D) and safety profile, secondary objectives included determining the PK profile, however effective treatment of patients with a range of refractory cancers has also been observed as part of this study.
A total of 68 patients have been entered into this dose escalation study, of which 49 were evaluable for clinical response in that they have received at least 2 Cycles of NUC-1031 and were therefore eligible for a RECIST 1.1 assessment.
NUC-1031 was administered as a 5 to 30 minute intravenous slow bolus injection. • Schedule A: NUC-1031 was administered on days 1, 8, 15 of a 4 weekly Cycle. • Schedule B: NUC-1031 was administered on days 1, 5, 8, 12, 15, 19, of a 4 weekly Cycle.
Evaluable patients were patients that received ≥ 2 Cycles of NUC-1031 and were therefore eligible for a RECIST 1.1 assessment at the end of Cycle 2. Where the disease response duration, measured in months, is followed by a “+” this indicates ongoing disease control as of the latest cut-off date.

[1] = Patient 004, breast cancer, 500 mg/m^2 weekly
[2] = Patient 005, ovarian cancer, 500 mg/m^2 weekly
[3] = Patient 006, cholangiocarcinoma, 375 mg/m^2 twice weekly, then 500 mg/m^2 weekly
[4] = Patient 008, cancer of unknown primary, 375 mg/m^2 twice weekly
[5] = Patient 010, endometrial cancer
[6] = Patient 015, cancer of unknown primary, ongoing
[7] = Patient 021, fallopian tube cancer
[8] = Patient 025, mesothelioma, 725 mg/m^2 weekly
[9] = Patient 026, colorectal cancer, 725 mg/m^2 weekly
[10] = Patient 029, breast cancer, 725 mg/m^2 weekly
[11] = Patient 030, ovarian cancer, 725 mg/m^2 weekly
[12] = Patient 032, oesophageal cancer, 750 mg/m^2 weekly
[13] = Patient 033, cholangiocarcinoma, 750 mg/m^2 weekly

For “gemcitabine-[phenyl-benzoxy-L-alaninyl)]-phosphate [NUC-1031]”, the Disease response duration [1] was 12 months, the “Response to RECIST” value [1] was “Stable Disease” and the “Remained stable with no further treatment” value (Patient 004, breast cancer, after Cycle 7) was 5 months. The Disease response duration [2] was 15 months, the “Response to RECIST” value [2] was “Stable Disease” and the “Time to relapse after stopping treatment” value (Patient 005, ovarian cancer, after 12 months of treatment) was 3 months. For the same substance, the CA125 level (Patient 005, ovarian cancer, end of Cycle 6, from 208 at start of study) was 140, the CT scan finding (Patient 006, cholangiocarcinoma) was “reduction in metastatic lung lesion and lymph node from baseline” and the Disease response duration [3] was 3 months. The “Response to RECIST” value [3] was “Stable Disease”, the CA19.9 (Patient 006, cholangiocarcinoma, after two doses, from 125,002) was 59,285 and the Disease response duration (Patient 007, colorectal cancer) was 3 months. The “Response to RECIST” value (Patient 007, colorectal cancer, 375 mg/m^2 twice weekly, then 500 mg/m^2 weekly) was “Stable Disease”, the CEA (Patient 007, colorectal cancer, from 361) was 286 and the CA19.9 (Patient 007, colorectal cancer, from 3,151) was 2,957. For the same substance, the Disease response duration [4] was 3 months, the “Response to RECIST” value [4] was “Stable Disease” and the Symptomatic benefit (Patient 008, cancer of unknown primary, Cycle 1) was “symptomatic relief on treatment and a general improvement in mood and wellbeing”. The Disease response duration [5] was 9 months, the “Stable Disease maintained after stopping NUC-1031” value [5] was 3 months and the “Response to RECIST” value (Patient 010, endometrial cancer, 750 mg/m^2 weekly, then 500 mg/m^2) was “Stable Disease”. The CA125 (Patient 010, endometrial cancer, from 727) was 488, the Disease response duration (Patient 011, uterine carcinosarcoma) was 4 months and the “Reduction in tumour volume” value (Patient 011, uterine carcinosarcoma, 375 mg/m^2 twice weekly) was 26%. The “Response to RECIST” value (Patient 011, uterine carcinosarcoma, 375 mg/m^2 twice weekly, then 625 mg/m^2 weekly) was “Stable Disease”, the Disease response duration (Patient 012, cholangiocarcinoma) was 8 months and the “Response to RECIST” value (Patient 012, cholangiocarcinoma, 375 mg/m^2 twice weekly, then 625 mg/m^2 weekly) was “Stable Disease”. For the same substance, the Disease response duration (Patient 013, cervical cancer) was 9 months, the PFS (Patient 013, cervical cancer) was 11 months and the “Response to RECIST” value (Patient 013, cervical cancer, 750, then 625, then 500 mg/m^2 weekly) was “Partial Response”. For the same substance, the Symptomatic benefit (Patient 013, cervical cancer, lower pelvic pain) was “relief of this pain on treatment, with significant reduction of opioid usage”, the “Response to RECIST” value (Patient 014, mesothelioma, 750, then 625 mg/m^2 weekly) was “Progressive Disease” and the “Response to RECIST” value (Patient 015, cancer of unknown primary, 750, then 625, then 500 mg/m^2 weekly) was “Partial Response”. The “Reduction in tumour size” value (Patient 015, cancer of unknown primary, CT scan 9th January 2015) was ~58%, the Symptomatic benefit (Patient 015, cancer of unknown primary, following Cycle 1) was “the oedema and ascites had gone” and the Disease response duration [6] was ≥ 20 months. For the same substance, the PFS [6] was ≥ 24 months, the Disease response duration (Patient 017, lung cancer) was 3 months and the PFS (Patient 017, lung cancer) was 10 months. The Symptomatic benefit (Patient 017, lung cancer) was “improvement in hoarse voice and dysphagia”, the “Response to RECIST” value (Patient 017, lung cancer (adenocarcinoma), 750, then 625 mg/m^2 weekly) was “Partial Response” and the “Response to RECIST” value (Patient 018, lung cancer (squamous cell), 625 mg/m^2 weekly) was “Stable Disease”. For the same substance, the Disease response duration (Patient 018, lung cancer, 625 mg/m^2 weekly) was 4 months, the “Response duration according to GCIG criteria” value [7] was 9 months and the “Response duration according to RECIST” value [7] was 3 months. The Symptomatic benefit [7] was “significant reduction in abdominal ascites”, the Best overall response (Patient 021, fallopian tube cancer, 625 mg/m^2 weekly) was “Partial Response” and the “CA125 reduction from baseline” value (Patient 021, fallopian tube cancer, end of Cycle 6) was 91%. For the same substance, the CA125 (Patient 021, fallopian tube cancer, end of Cycle 6, baseline 372) was 35, the “Response to RECIST” value (Patient 024, cancer of unknown primary, 675 mg/m^2 weekly) was “Progressive Disease” and the Disease response duration [8] was 4 months. The “Response to RECIST” value [8] was “Stable Disease”, the Symptomatic benefit (Patient 026, colorectal cancer) was “Significant improvement in pain, with dramatic reduction in use of opioid analgesia” and the Disease response duration [9] was 4 months. For the same substance, the “Response to RECIST” value [9] was “Stable Disease”, the Disease response duration (Patient 027, ovarian cancer) was 8 months and the “Reduction in tumour volume” value (Patient 027, ovarian cancer) was 23%. The “Response to RECIST” value (Patient 027, ovarian cancer, 725, then 675, then 625 mg/m^2 weekly) was “Stable Disease”, the CA125 (Patient 027, ovarian cancer, end of Cycle 6, from 188 at baseline) was 99 and the Disease response duration [10] was 4 months. For the same substance, the “Response to RECIST” value [10] was “Stable Disease”, the Disease response duration [11] was 3 months and the “Response to RECIST” value [11] was “Stable Disease”. The “Response (end of Cycle 2 CT scan)” value (Patient 031, cholangiocarcinoma, 750 mg/m^2 weekly) was “Progressive Disease”, the Disease response duration [12] was 2 months and the “Response to RECIST” value [12] was “Stable Disease”. The Disease response duration [13] was 3 months, the “Response to RECIST” value [13] was “Stable Disease” and the Disease response duration (Patient 036, renal carcinoma) was 5 months. For the same substance, the “Response to RECIST” value (Patient 036, renal carcinoma, 825, then 750 mg/m^2 weekly) was “Stable Disease”, the “Reduction in tumour volume” value (Patient 036, renal carcinoma, end of Cycle 4 CT scan) was 7% and the Disease response duration (Patient 037, pancreatic cancer) was 1 month. The PFS (Patient 037, pancreatic cancer) was 4 months, the Symptomatic benefit (Patient 037, pancreatic cancer) was “Pain in abdomen and back had significantly improved” and the “Response to RECIST” value (Patient 037, pancreatic cancer, 1,000, then 900 mg/m^2 weekly) was “Partial Response”.
